# Test results taken from US4164577A, “6-(2-Acylamino-2-arylacetamido)penicillanic acids” (priority 1977, dated 1979).
# Columns and labels:
# Experiment in all cases: in vitro antibacterial activity, minimum inhibitory concentration (agar dilution)
# Type in all cases: cell-based
# [1] = system: Pseudomonas aeruginosa M-16; conditions: ATCC15692, 20 h, read-out: Minimum Inhibitory concentration (MIC) Pseudomonas aeruginosa M-16
# Description: (§1) The compounds of this invention were tested for antibacterial activity according to the following procedure.
# (§2) Nutrient broth and nutrient agar were prepared according to the conventional procedure. Nutrient agar was used as a vehicle. The stock solution was prepared at 100 μg/ml of the test material in the vehicle. Two-fold dilutions were made with the vehicle and then the diluted stock solution was added to a petri dish and solidified by chilling. Test organisms were grown in the nutrient broth for 20 hours at 37° C. The hardened surface was inoculated with a loopful of the test organism solution containing 1×10^6 cells per milliliter and incubated for 20 hours at 37° C. At the end of this period, growth of the organism was observed. […] The following Table 1 summarizes the activity of representative compounds as active antibacterial agents, and compares them with the reference drug Sulbenicillin.
# [2] = system: Pseudomonas aeruginosa M-2008; conditions: ATCC15691, 20 h, read-out: Minimum Inhibitory concentration (MIC) Pseudomonas aeruginosa M-2008
# Description: as §1, §2
# [3] = system: Pseudomonas aeruginosa M-12; conditions: ATCC15692, 20 h, read-out: Minimum Inhibitory concentration (MIC) Pseudomonas aeruginosa M-12
# Description: as §1, §2
SMILES,MIC [1] [µg/mL],MIC [2] [µg/mL],MIC [3] [µg/mL]
"CC1(C)S[C@@H]2[C@H](NC(=O)C(c3ccccc3)S(=O)(=O)O)C(=O)N2[C@H]1C(=O)O (stereo partly drawn) [11 Sulbenicillin, Sulbenicillin, reference compound]",25,25,25
"CC1(C)S[C@@H]2[C@H](NC(=O)[C@H](NC(=O)c3nc4cccnc4nc3O)c3ccc(O)cc3)C(=O)N2[C@H]1C(=O)O [Compound 2, potassium 6-[D-2-(3-hydroxypyrido[2,3-b]pyrazine-2-carboxamido)-2-(p-hydroxyphenyl)acetamido]penicillanate]",0.78,3.1,< 1.5
CC1(C)S[C@@H]2[C@H](NC(=O)[C@H](NC(=O)c3nc4cc(Cl)cnc4nc3O)c3ccc(O)cc3)C(=O)N2[C@H]1C(=O)O [Compound 4],3.1,6.2,
CC1(C)S[C@@H]2[C@H](NC(=O)[C@H](NC(=O)c3nc4cc(Br)cnc4nc3O)c3ccc(O)cc3)C(=O)N2[C@H]1C(=O)O [Compound 6],< 1.5,3.1,
CC1(C)S[C@@H]2[C@H](NC(=O)[C@H](NC(=O)c3nc4cncnc4nc3O)c3ccc(O)cc3)C(=O)N2[C@H]1C(=O)O [Compound 8],< 1.56,,
Cc1nc2nc(O)c(C(=O)N[C@@H](C(=O)N[C@@H]3C(=O)N4[C@@H]3SC(C)(C)[C@@H]4C(=O)O)c3ccc(O)cc3)nc2cc1Br [Compound 10],1.5,,
